Measured values as given in PMC6009956, “Design, synthesis and biological activity of N^4-phenylsubstituted-7H-pyrrolo[2,3-d]pyrimidin-4-amines as dual inhibitors of aurora kinase A and epidermal growth factor receptor kinase” (Journal of Enzyme Inhibition and Medicinal Chemistry, 2017).
Like-named read-outs stand apart in the source and are kept apart here.

Tests used:
EGFR = EGFR (Homo sapiens, UniProt P00533); test: ADP-Glo kinase assay, EGFR; assay type: biochemical; parameters: purchased BPS Bioscience (assay run externally by the vendor)
aurora A kinase (AURKA) = molecular target: T1, aurora A kinase (AURKA) (Homo sapiens, UniProt O14965); test: ADP-Glo kinase assay, Aurora A; assay type: biochemical
T1 construct: purchased BPS Bioscience (assay run externally by the vendor)
T1 sequence (O14965 1-403): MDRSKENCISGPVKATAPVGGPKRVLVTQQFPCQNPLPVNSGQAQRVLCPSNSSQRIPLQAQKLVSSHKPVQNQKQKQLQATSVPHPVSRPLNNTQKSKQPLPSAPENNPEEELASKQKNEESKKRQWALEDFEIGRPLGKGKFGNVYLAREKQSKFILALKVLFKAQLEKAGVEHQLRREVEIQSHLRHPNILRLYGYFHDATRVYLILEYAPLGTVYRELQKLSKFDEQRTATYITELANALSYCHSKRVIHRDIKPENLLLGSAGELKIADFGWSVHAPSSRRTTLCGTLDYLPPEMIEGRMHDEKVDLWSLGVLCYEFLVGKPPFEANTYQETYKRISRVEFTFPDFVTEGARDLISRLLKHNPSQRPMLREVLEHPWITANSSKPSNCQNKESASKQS

[1] = 10 µM ATP, triplicate, read-out: EGFR IC50 ± SD
[2] = 10 µM ATP/0.2 mg/ml Poly-Glu-Tyr, read-out: EGFR IC50 (dose-response curve, supplement)
[3] = 10 µM ATP, triplicate, read-out: AURKA IC50 ± SD
[4] = 10 µM ATP/0.2 mg/ml Kemptide, read-out: Aurora A IC50 (dose-response curve, supplement)

EGFR, sequence (P00533 25-1210): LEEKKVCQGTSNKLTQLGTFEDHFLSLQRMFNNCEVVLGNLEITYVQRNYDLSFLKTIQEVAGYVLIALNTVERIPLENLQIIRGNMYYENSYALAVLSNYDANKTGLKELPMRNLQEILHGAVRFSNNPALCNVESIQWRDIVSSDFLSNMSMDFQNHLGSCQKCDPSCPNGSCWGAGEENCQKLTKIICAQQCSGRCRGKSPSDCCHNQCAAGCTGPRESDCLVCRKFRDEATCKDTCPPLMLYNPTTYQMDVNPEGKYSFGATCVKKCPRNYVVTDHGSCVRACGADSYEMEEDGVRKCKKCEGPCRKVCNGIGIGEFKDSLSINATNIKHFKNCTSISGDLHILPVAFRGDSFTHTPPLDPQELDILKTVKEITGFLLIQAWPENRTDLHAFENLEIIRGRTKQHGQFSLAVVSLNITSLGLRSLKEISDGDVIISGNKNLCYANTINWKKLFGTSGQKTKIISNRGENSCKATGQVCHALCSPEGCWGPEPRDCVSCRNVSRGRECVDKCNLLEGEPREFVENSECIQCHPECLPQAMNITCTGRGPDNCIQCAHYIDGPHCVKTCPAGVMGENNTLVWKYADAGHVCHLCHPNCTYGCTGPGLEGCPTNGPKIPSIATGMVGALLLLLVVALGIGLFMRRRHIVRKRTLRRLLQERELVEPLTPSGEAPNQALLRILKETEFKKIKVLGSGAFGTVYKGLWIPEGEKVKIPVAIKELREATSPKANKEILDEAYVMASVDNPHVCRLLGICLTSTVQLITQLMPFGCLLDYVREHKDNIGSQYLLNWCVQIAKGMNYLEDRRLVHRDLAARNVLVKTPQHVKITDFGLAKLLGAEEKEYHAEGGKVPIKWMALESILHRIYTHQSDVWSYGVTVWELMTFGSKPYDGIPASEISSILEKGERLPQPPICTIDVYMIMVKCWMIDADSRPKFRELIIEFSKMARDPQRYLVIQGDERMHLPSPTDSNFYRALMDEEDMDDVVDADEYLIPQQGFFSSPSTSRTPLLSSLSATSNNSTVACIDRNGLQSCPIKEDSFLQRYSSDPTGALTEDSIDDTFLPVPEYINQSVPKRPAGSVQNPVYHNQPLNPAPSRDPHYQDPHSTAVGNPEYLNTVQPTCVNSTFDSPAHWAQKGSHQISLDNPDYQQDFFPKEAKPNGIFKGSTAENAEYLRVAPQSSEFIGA

Brc1ccc(Nc2ncnc3[nH]ccc23)cc1 [Compound 10, N^4-(4-bromophenyl)-7H-pyrrolo[2,3-d]pyrimidin-4-amine]
IC50 (EGFR; [1]): 125 ± 16.4 nM
IC50 (EGFR; [2]): 125 nM
EGFR % Activity Set1 (EGFR; Log[nM] 0): 90%
EGFR % Activity Set2 (EGFR; Log[nM] 0): 96%
EGFR % Activity Set3 (EGFR; Log[nM] 0): 103%
EGFR % Activity Set1 (EGFR; Log[nM] 1.0): 97%
EGFR % Activity Set2 (EGFR; Log[nM] 1.0): 90%
EGFR % Activity Set3 (EGFR; Log[nM] 1.0): 97%
EGFR % Activity Set1 (EGFR; Log[nM] 1.5): 78%
EGFR % Activity Set2 (EGFR; Log[nM] 1.5): 82%
EGFR % Activity Set3 (EGFR; Log[nM] 1.5): 80%
EGFR % Activity Set1 (EGFR; Log[nM] 2.0): 53%
EGFR % Activity Set2 (EGFR; Log[nM] 2.0): 56%
EGFR % Activity Set3 (EGFR; Log[nM] 2.0): 51%
EGFR % Activity Set1 (EGFR; Log[nM] 2.5): 30%
EGFR % Activity Set2 (EGFR; Log[nM] 2.5): 29%
EGFR % Activity Set3 (EGFR; Log[nM] 2.5): 28%
EGFR % Activity Set1 (EGFR; Log[nM] 3.0): 14%
EGFR % Activity Set2 (EGFR; Log[nM] 3.0): 12%
EGFR % Activity Set3 (EGFR; Log[nM] 3.0): 12%
EGFR % Activity Set1 (EGFR; Log[nM] 3.5): 6%
EGFR % Activity Set2 (EGFR; Log[nM] 3.5): 5%
EGFR % Activity Set3 (EGFR; Log[nM] 3.5): 5%
EGFR % Activity Set1 (EGFR; Log[nM] 4.0): 2%
EGFR % Activity Set2 (EGFR; Log[nM] 4.0): 2%
EGFR % Activity Set3 (EGFR; Log[nM] 4.0): 2%
EGFR % Activity Set1 (EGFR; Log[nM] 4.5): 1%
EGFR % Activity Set2 (EGFR; Log[nM] 4.5): 1%
EGFR % Activity Set3 (EGFR; Log[nM] 4.5): 1%
EGFR % Activity Set1 (EGFR; Log[nM] 5.0): 1%
EGFR % Activity Set2 (EGFR; Log[nM] 5.0): 1%
EGFR % Activity Set3 (EGFR; Log[nM] 5.0): 1%
IC50 (aurora A kinase (AURKA); [3]): 3730 ± 120 nM
IC50 (aurora A kinase (AURKA); [4]): 3700 nM
Aurora A % Activity Set1 (aurora A kinase (AURKA); Log[nM] 0): 98%
Aurora A % Activity Set2 (aurora A kinase (AURKA); Log[nM] 0): 87%
Aurora A % Activity Set3 (aurora A kinase (AURKA); Log[nM] 0): 96%
Aurora A % Activity Set1 (aurora A kinase (AURKA); Log[nM] 1.0): 97%
Aurora A % Activity Set2 (aurora A kinase (AURKA); Log[nM] 1.0): 94%
Aurora A % Activity Set3 (aurora A kinase (AURKA); Log[nM] 1.0): 94%
Aurora A % Activity Set1 (aurora A kinase (AURKA); Log[nM] 1.5): 100%
Aurora A % Activity Set2 (aurora A kinase (AURKA); Log[nM] 1.5): 95%
Aurora A % Activity Set3 (aurora A kinase (AURKA); Log[nM] 1.5): 95%
Aurora A % Activity Set1 (aurora A kinase (AURKA); Log[nM] 2.0): 102%
Aurora A % Activity Set2 (aurora A kinase (AURKA); Log[nM] 2.0): 97%
Aurora A % Activity Set3 (aurora A kinase (AURKA); Log[nM] 2.0): 101%
Aurora A % Activity Set1 (aurora A kinase (AURKA); Log[nM] 2.5): 100%
Aurora A % Activity Set2 (aurora A kinase (AURKA); Log[nM] 2.5): 93%
Aurora A % Activity Set3 (aurora A kinase (AURKA); Log[nM] 2.5): 98%
Aurora A % Activity Set1 (aurora A kinase (AURKA); Log[nM] 3.0): 82%
Aurora A % Activity Set2 (aurora A kinase (AURKA); Log[nM] 3.0): 83%
Aurora A % Activity Set3 (aurora A kinase (AURKA); Log[nM] 3.0): 82%
Aurora A % Activity Set1 (aurora A kinase (AURKA); Log[nM] 3.5): 60%
Aurora A % Activity Set2 (aurora A kinase (AURKA); Log[nM] 3.5): 55%
Aurora A % Activity Set3 (aurora A kinase (AURKA); Log[nM] 3.5): 53%
Aurora A % Activity Set1 (aurora A kinase (AURKA); Log[nM] 4.0): 20%
Aurora A % Activity Set2 (aurora A kinase (AURKA); Log[nM] 4.0): 19%
Aurora A % Activity Set3 (aurora A kinase (AURKA); Log[nM] 4.0): 20%
Aurora A % Activity Set1 (aurora A kinase (AURKA); Log[nM] 4.5): 9%
Aurora A % Activity Set2 (aurora A kinase (AURKA); Log[nM] 4.5): 9%
Aurora A % Activity Set3 (aurora A kinase (AURKA); Log[nM] 4.5): 9%
Aurora A % Activity Set1 (aurora A kinase (AURKA); Log[nM] 5.0): 10%
Aurora A % Activity Set2 (aurora A kinase (AURKA); Log[nM] 5.0): 10%
Aurora A % Activity Set3 (aurora A kinase (AURKA); Log[nM] 5.0): 9%

Clc1cccc(Nc2ncnc3[nH]ccc23)c1 [Compound 11, N^4-(3-chlorophenyl)-7H-pyrrolo[2,3-d]pyrimidin-4-amine]
EGFR inhibition (in words) (EGFR): single-digit nanomolar EGFR inhibition
IC50 (EGFR; [1]): 6.63 ± 0.98 nM
IC50 (EGFR; [2]): 6.5 nM
EGFR % Activity Set1 (EGFR; Log[nM] 0): 66%
EGFR % Activity Set2 (EGFR; Log[nM] 0): 62%
EGFR % Activity Set3 (EGFR; Log[nM] 0): 63%
EGFR % Activity Set1 (EGFR; Log[nM] 1.0): 36%
EGFR % Activity Set2 (EGFR; Log[nM] 1.0): 34%
EGFR % Activity Set3 (EGFR; Log[nM] 1.0): 39%
EGFR % Activity Set1 (EGFR; Log[nM] 1.5): 17%
EGFR % Activity Set2 (EGFR; Log[nM] 1.5): 16%
EGFR % Activity Set3 (EGFR; Log[nM] 1.5): 20%
EGFR % Activity Set1 (EGFR; Log[nM] 2.0): 8%
EGFR % Activity Set2 (EGFR; Log[nM] 2.0): 7%
EGFR % Activity Set3 (EGFR; Log[nM] 2.0): 11%
EGFR % Activity Set1 (EGFR; Log[nM] 2.5): 6%
EGFR % Activity Set2 (EGFR; Log[nM] 2.5): 4%
EGFR % Activity Set3 (EGFR; Log[nM] 2.5): 6%
EGFR % Activity Set1 (EGFR; Log[nM] 3.0): 3%
EGFR % Activity Set2 (EGFR; Log[nM] 3.0): 1%
EGFR % Activity Set3 (EGFR; Log[nM] 3.0): 2%
EGFR % Activity Set1 (EGFR; Log[nM] 3.5): 2%
EGFR % Activity Set2 (EGFR; Log[nM] 3.5): 0%
EGFR % Activity Set3 (EGFR; Log[nM] 3.5): 0%
EGFR % Activity Set1 (EGFR; Log[nM] 4.0): 1%
EGFR % Activity Set2 (EGFR; Log[nM] 4.0): 0%
EGFR % Activity Set3 (EGFR; Log[nM] 4.0): 0%
EGFR % Activity Set1 (EGFR; Log[nM] 4.5): 0%
EGFR % Activity Set2 (EGFR; Log[nM] 4.5): 0%
EGFR % Activity Set3 (EGFR; Log[nM] 4.5): 0%
EGFR % Activity Set1 (EGFR; Log[nM] 5.0): 0%
EGFR % Activity Set2 (EGFR; Log[nM] 5.0): 0%
EGFR % Activity Set3 (EGFR; Log[nM] 5.0): 0%
IC50 (aurora A kinase (AURKA); [3]): 3130 ± 750 nM
IC50 (aurora A kinase (AURKA); [4]): 3100 nM
Aurora A % Activity Set1 (aurora A kinase (AURKA); Log[nM] 0): 99%
Aurora A % Activity Set2 (aurora A kinase (AURKA); Log[nM] 0): 100%
Aurora A % Activity Set3 (aurora A kinase (AURKA); Log[nM] 0): 90%
Aurora A % Activity Set1 (aurora A kinase (AURKA); Log[nM] 1.0): 109%
Aurora A % Activity Set2 (aurora A kinase (AURKA); Log[nM] 1.0): 95%
Aurora A % Activity Set3 (aurora A kinase (AURKA); Log[nM] 1.0): 101%
Aurora A % Activity Set1 (aurora A kinase (AURKA); Log[nM] 1.5): 102%
Aurora A % Activity Set2 (aurora A kinase (AURKA); Log[nM] 1.5): 108%
Aurora A % Activity Set3 (aurora A kinase (AURKA); Log[nM] 1.5): 96%
Aurora A % Activity Set1 (aurora A kinase (AURKA); Log[nM] 2.0): 94%
Aurora A % Activity Set2 (aurora A kinase (AURKA); Log[nM] 2.0): 104%
Aurora A % Activity Set3 (aurora A kinase (AURKA); Log[nM] 2.0): 107%
Aurora A % Activity Set1 (aurora A kinase (AURKA); Log[nM] 2.5): 95%
Aurora A % Activity Set2 (aurora A kinase (AURKA); Log[nM] 2.5): 98%
Aurora A % Activity Set3 (aurora A kinase (AURKA); Log[nM] 2.5): 99%
Aurora A % Activity Set1 (aurora A kinase (AURKA); Log[nM] 3.0): 80%
Aurora A % Activity Set2 (aurora A kinase (AURKA); Log[nM] 3.0): 85%
Aurora A % Activity Set3 (aurora A kinase (AURKA); Log[nM] 3.0): 84%
Aurora A % Activity Set1 (aurora A kinase (AURKA); Log[nM] 3.5): 42%
Aurora A % Activity Set2 (aurora A kinase (AURKA); Log[nM] 3.5): 48%
Aurora A % Activity Set3 (aurora A kinase (AURKA); Log[nM] 3.5): 49%
Aurora A % Activity Set1 (aurora A kinase (AURKA); Log[nM] 4.0): 19%
Aurora A % Activity Set2 (aurora A kinase (AURKA); Log[nM] 4.0): 22%
Aurora A % Activity Set3 (aurora A kinase (AURKA); Log[nM] 4.0): 19%
Aurora A % Activity Set1 (aurora A kinase (AURKA); Log[nM] 4.5): 8%
Aurora A % Activity Set2 (aurora A kinase (AURKA); Log[nM] 4.5): 9%
Aurora A % Activity Set3 (aurora A kinase (AURKA); Log[nM] 4.5): 8%
Aurora A % Activity Set1 (aurora A kinase (AURKA); Log[nM] 5.0): 5%
Aurora A % Activity Set2 (aurora A kinase (AURKA); Log[nM] 5.0): 4%
Aurora A % Activity Set3 (aurora A kinase (AURKA); Log[nM] 5.0): 3%
